The source of these data is ChEMBL document CHEMBL4725421, “SMARCA2/4 PROTAC for Targeted Protein Degradation and Cancer Therapy” (ACS Med Chem Lett, 2020).

In general, Emax refers to the greatest response seen or fitted, relative to the assay's reference. Broadly, the EC50 is the concentration that produces a half-maximal response.

Holding throughout (type): cell-based
Assay [1] addresses von Hippel-Lindau disease tumor suppressor/SWI/SNF-related matrix-associated actin-dependent regulator of chromatin subfamily A member 4 (Homo sapiens) (UniProt P51532+P40337). The assay is described as follows: Protac activity at VHL/SMARCA4 in human A549 cells assessed as induction of SMARCA4 bromodomain degradation using anti-SMARCA4 antibody incubated for 18 hrs by WES capillary electrophoresis relative to initial level.

For assay [2], the target named is von Hippel-Lindau disease tumor suppressor/SWI/SNF-related matrix-associated actin-dependent regulator of chromatin subfamily A member 2 (Homo sapiens, UniProt P40337+P51531). The assay is described as follows: Protac activity at VHL/SMARCA2 in human A549 cells assessed as induction of SMARCA2 bromodomain degradation using rabbit anti-SMARCA2 antibody incubated for 18 hrs by WES capillary electrophoresis.

Assay [3] addresses von Hippel-Lindau disease tumor suppressor/SWI/SNF-related matrix-associated actin-dependent regulator of chromatin subfamily A member 2 (Homo sapiens) (UniProt P51531+P40337). The assay is described as follows: Protac activity at VHL/SMARCA2 in human A549 cells assessed as induction of SMARCA2 bromodomain degradation using rabbit anti-SMARCA2 antibody incubated for 18 hrs by WES capillary electrophoresis relative to initial level.

Assay [4] deals with von Hippel-Lindau disease tumor suppressor/SWI/SNF-related matrix-associated actin-dependent regulator of chromatin subfamily A member 4 (Homo sapiens, UniProt P40337+P51532). The assay is described as follows: Protac activity at VHL/SMARCA4 in human A549 cells assessed as induction of SMARCA4 bromodomain degradation using anti-SMARCA4 antibody incubated for 18 hrs by WES capillary electrophoresis.
Chain of von Hippel-Lindau disease tumor suppressor/SWI/SNF-related matrix-associated actin-dependent regulator of chromatin subfamily A member 4 (P51532 whole entry): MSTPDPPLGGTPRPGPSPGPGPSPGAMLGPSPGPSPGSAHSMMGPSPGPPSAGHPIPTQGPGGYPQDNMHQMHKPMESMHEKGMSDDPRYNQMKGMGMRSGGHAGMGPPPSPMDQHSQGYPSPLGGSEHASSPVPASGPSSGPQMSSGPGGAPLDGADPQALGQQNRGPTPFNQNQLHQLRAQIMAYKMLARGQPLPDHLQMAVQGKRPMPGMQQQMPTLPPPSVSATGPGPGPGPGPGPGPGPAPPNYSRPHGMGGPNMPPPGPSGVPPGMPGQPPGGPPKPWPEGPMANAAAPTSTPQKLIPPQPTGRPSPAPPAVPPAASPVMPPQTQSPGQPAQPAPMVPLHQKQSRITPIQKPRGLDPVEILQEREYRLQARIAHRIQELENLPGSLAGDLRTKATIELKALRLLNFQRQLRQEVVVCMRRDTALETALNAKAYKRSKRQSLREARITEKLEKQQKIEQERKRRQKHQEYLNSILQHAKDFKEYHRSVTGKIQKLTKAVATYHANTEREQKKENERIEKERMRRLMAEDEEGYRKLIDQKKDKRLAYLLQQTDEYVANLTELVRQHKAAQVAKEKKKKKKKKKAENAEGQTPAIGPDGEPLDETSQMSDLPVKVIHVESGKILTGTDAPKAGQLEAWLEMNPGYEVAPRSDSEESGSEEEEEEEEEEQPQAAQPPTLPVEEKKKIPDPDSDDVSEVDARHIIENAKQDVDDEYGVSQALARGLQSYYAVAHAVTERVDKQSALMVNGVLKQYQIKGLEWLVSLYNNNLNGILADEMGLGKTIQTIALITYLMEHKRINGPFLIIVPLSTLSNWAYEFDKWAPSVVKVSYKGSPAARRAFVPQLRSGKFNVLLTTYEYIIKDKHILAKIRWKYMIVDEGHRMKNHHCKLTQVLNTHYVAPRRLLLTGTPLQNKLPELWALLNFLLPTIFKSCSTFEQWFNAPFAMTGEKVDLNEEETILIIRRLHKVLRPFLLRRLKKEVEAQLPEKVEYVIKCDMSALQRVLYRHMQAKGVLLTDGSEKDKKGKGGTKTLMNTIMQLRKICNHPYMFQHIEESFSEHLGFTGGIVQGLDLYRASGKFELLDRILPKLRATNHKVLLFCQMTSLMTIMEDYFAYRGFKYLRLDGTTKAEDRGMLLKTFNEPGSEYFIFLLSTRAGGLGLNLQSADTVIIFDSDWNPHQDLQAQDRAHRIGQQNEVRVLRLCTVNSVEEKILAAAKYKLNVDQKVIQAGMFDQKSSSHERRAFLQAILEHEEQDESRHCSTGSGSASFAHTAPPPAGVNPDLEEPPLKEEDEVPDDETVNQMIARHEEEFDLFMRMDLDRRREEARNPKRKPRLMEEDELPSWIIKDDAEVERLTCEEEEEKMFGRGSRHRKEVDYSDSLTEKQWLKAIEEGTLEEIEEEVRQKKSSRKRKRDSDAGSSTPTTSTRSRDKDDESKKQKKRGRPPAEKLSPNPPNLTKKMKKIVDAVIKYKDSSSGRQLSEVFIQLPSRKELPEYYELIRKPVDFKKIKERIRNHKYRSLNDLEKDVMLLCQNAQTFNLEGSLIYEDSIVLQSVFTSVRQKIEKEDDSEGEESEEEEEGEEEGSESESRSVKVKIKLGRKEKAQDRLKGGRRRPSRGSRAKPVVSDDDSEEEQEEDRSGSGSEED
Chain of von Hippel-Lindau disease tumor suppressor/SWI/SNF-related matrix-associated actin-dependent regulator of chromatin subfamily A member 4 (P40337 whole entry): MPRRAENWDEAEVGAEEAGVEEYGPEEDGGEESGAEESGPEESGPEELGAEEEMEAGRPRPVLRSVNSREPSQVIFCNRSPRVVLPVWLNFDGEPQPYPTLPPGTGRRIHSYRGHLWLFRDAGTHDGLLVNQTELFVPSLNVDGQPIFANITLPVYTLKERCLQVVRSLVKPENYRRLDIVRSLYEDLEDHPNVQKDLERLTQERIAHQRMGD

Chain of von Hippel-Lindau disease tumor suppressor/SWI/SNF-related matrix-associated actin-dependent regulator of chromatin subfamily A member 2 (P51531 whole entry): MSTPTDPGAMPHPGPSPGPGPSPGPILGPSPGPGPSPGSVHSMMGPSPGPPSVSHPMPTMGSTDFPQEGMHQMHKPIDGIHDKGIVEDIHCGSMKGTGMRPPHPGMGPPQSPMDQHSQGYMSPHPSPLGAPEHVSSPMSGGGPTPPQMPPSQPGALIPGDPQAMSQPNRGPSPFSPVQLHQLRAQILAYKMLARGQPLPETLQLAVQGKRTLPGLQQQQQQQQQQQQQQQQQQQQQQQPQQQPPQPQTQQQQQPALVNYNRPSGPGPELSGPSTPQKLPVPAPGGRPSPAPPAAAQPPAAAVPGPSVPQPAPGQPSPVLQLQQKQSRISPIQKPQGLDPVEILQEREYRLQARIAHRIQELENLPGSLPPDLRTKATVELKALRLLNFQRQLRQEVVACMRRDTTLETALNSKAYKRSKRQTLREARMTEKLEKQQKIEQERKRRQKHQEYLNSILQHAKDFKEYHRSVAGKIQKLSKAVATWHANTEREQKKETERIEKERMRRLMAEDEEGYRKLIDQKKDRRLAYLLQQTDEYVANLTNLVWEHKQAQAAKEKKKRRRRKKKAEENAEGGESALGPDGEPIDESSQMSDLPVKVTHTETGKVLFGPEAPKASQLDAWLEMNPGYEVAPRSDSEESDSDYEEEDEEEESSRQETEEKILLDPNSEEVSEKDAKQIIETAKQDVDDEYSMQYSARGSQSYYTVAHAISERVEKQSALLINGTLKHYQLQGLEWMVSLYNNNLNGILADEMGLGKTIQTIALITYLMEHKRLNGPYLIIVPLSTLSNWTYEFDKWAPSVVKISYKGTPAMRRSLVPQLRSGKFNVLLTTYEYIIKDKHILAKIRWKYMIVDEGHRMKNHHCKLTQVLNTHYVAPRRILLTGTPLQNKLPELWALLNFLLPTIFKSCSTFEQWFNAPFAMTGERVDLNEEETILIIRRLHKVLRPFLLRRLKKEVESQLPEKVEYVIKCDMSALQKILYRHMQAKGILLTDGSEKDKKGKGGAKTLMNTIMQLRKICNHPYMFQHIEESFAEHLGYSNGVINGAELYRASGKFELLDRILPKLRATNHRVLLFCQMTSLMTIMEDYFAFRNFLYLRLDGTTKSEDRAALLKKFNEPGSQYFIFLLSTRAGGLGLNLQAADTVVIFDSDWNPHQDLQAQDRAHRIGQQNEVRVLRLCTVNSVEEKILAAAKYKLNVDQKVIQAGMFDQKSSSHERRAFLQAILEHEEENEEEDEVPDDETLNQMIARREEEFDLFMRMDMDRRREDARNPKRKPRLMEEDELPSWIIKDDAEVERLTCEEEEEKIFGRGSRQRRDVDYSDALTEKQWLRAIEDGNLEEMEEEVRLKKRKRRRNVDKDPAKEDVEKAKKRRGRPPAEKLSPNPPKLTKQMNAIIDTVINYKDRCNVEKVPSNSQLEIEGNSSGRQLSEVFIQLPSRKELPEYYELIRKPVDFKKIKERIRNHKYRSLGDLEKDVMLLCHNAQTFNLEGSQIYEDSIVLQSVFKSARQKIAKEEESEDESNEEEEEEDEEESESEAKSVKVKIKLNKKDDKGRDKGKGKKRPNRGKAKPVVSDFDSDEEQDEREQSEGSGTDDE
Chain of von Hippel-Lindau disease tumor suppressor/SWI/SNF-related matrix-associated actin-dependent regulator of chromatin subfamily A member 2 (P40337 whole entry): as the sequence (P40337 whole entry) above
Chain of von Hippel-Lindau disease tumor suppressor/SWI/SNF-related matrix-associated actin-dependent regulator of chromatin subfamily A member 4 (Homo sapiens) (P40337 whole entry, looked up): as the sequence (P40337 whole entry) above
Chain of von Hippel-Lindau disease tumor suppressor/SWI/SNF-related matrix-associated actin-dependent regulator of chromatin subfamily A member 4 (Homo sapiens) (P51532 whole entry, looked up): as the sequence (P51532 whole entry) above
Chain of von Hippel-Lindau disease tumor suppressor/SWI/SNF-related matrix-associated actin-dependent regulator of chromatin subfamily A member 2 (Homo sapiens) (P40337 whole entry, looked up): as the sequence (P40337 whole entry) above
Chain of von Hippel-Lindau disease tumor suppressor/SWI/SNF-related matrix-associated actin-dependent regulator of chromatin subfamily A member 2 (Homo sapiens) (P51531 whole entry, looked up): as the sequence (P51531 whole entry) above

Regarding `Cc1ncsc1-c1ccc(CNC(=O)[C@@H]2C[C@@H](O)CN2C(=O)[C@@H](NC(=O)C2(F)CC2)C(C)(C)C)c(OCCCOc2ccc(CN3CCN(c4cc(-c5ccccc5O)nnc4N)CC3)cc2)c1`, the Emax in assay [1] amounted to 100%; in assay [3] it was 99%. The EC50 in assay [2] is 26 nM; in assay [4] it was 16 nM.

With `Cc1ncsc1-c1ccc(CNC(=O)[C@@H]2C[C@@H](O)CN2C(=O)[C@@H](NC(=O)C2(F)CC2)C(C)(C)C)c(OCCc2ccc(OCCN3CCN(c4cc(-c5ccccc5O)nnc4N)CC3)cc2)c1`, the Emax in assay [1] and in assay [3] was 99% throughout. The results for the EC50 in assay [2] and in assay [4] were 41 nM and 26 nM, respectively.

Consider `Cc1ncsc1-c1ccc(CNC(=O)[C@@H]2C[C@@H](O)CN2C(=O)[C@@H](NC(=O)C2(F)CC2)C(C)(C)C)c(OCCOc2ccc(CN3CCN(c4cc(-c5ccccc5O)nnc4N)CC3)cc2)c1`, for which the Emax in assay [1] turned out to be 97%; in assay [3], 98%. Also, the EC50 in assay [2] was 12 nM; in assay [4] it was 16 nM.

In the case of `Cc1ncsc1-c1ccc(CNC(=O)[C@@H]2C[C@@H](O)CN2C(=O)[C@@H](NC(=O)C2(F)CC2)C(C)(C)C)c(OCCCc2ccc(CN3CCN(c4cc(-c5ccccc5O)nnc4N)CC3)cc2)c1`, the Emax in assay [1] was 92%; in assay [3] it was 90%. Besides, the 50% effective concentration (EC50) is 58 nM in assay [2] and 25 nM in assay [4].

On to `Cc1ncsc1-c1ccc(CNC(=O)[C@@H]2C[C@@H](O)CN2C(=O)[C@@H](NC(=O)C2(F)CC2)C(C)(C)C)c(OCCc2ccc(CN3CCN(c4cc(-c5ccccc5O)nnc4N)CC3)c(F)c2)c1`, for which the Emax in assay [1] and in assay [3] was 95% in each case. The values for the EC50 in assay [2] and in assay [4] were 55 nM and 33 nM, respectively.

Turning to `Cc1ncsc1-c1ccc(CNC(=O)[C@@H]2C[C@@H](O)CN2C(=O)[C@@H](NC(=O)C2(F)CC2)C(C)(C)C)c(OCCc2ccc(CN3CCN(c4cc(-c5ccccc5O)nnc4N)CC3)cc2)c1`, the Emax is 93% in assay [1] and 91% in assay [3]. For the same molecule, the EC50 in assay [2] stood at 67 nM; in assay [4], 117 nM.
